“And” between values parts separate entries of the source, which are not always exact repeats. Equal values may be shown once.

Test [1] is described as follows: Ratio for Kcat to Km against Streptomyces R61 DD-peptidase. Further details: unit not given here.
Test [2] concerns Streptomyces. Briefly: Km against Streptomyces R61 DD-peptidase.
For test [3], the system named is Streptomyces. Briefly: Kcat against Streptomyces R61 DD-peptidase.
Test [4] addresses Beta-lactamase (Enterobacter cloacae) (UniProt P05364). Briefly: Kcat against P99 beta-lactamase.
Test [5] in a line: Ratio for Kcat to Km was determined. Also on record: unit not given here.

Sequence of Beta-lactamase (Enterobacter cloacae) (P05364 21-381 limits assumed): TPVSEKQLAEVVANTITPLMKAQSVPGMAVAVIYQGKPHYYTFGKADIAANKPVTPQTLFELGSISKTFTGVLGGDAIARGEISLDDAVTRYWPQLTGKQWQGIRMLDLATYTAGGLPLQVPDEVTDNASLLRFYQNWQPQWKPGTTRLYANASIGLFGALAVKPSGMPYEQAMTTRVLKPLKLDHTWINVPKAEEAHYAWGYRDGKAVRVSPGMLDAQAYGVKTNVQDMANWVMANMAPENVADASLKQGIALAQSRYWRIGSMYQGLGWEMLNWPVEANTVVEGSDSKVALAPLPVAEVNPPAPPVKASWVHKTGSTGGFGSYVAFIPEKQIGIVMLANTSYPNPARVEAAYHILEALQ

As to `C[C@H](NC(=O)Cc1ccccc1)C(=O)N[C@H](C)C(=O)O`, the Ratio in test [1] was determined as 286. Moreover, the Michaelis constant (Km) in the test on Streptomyces [2] is 7 mM. This compound had a k cat in the test on Streptomyces [3] of 2 s⁻¹.

On to `CC(=O)NCCCC[C@H](NC(C)=O)C(=O)N[C@@H](C)C(=O)N[C@H](C)C(=O)O`, for which the Ratio in test [1] is 5500 and 7890. The Km in the test on Streptomyces [2] is 10 mM and 7 mM. In the test with Streptomyces [3], this compound showed a k cat of 55 s⁻¹.

Take `C[C@@H](SC(=O)CNC(=O)Cc1ccccc1)C(=O)O`: the results for the Ratio in test [1] and in test [5] were 9660 and 6670, respectively. Moreover, in the test on Streptomyces [2], the Km was 0.63 mM. The k cat with Streptomyces [3] turned out to be 6.1 s⁻¹; in test [4], 22 s⁻¹.

Consider `C[C@@H](OC(=O)CNC(=O)Cc1ccccc1)C(=O)O`, for which the Ratio in test [1] came to 366; in test [5], 3390. The Km in the test with Streptomyces [2] was found to be 11.8 mM. Also, the k cat with Streptomyces [3] worked out at 4.3 s⁻¹; in test [4], 27.3 s⁻¹.

Consider `CC(=O)NCCCC[C@H](NC(C)=O)C(=O)NCC(=O)N[C@H](C)C(=O)O`, for which the Ratio in test [1] turned out to be 1.3. Moreover, the Km with Streptomyces [2] is 15 mM. In the test with Streptomyces [3], this compound showed a k cat of 0.019 s⁻¹.

`CC(=O)NCCCC[C@H](NC(C)=O)C(=O)NCC(=O)O[C@H](C)C(=O)O`: the Ratio is 1060 in test [1] and 493 in test [5]. In addition, in the test with Streptomyces [2], the Km was 9.8 mM. The figures for the k cat (with Streptomyces [3]; in test [4]) were 10.4 s⁻¹ and 17.8 s⁻¹, respectively.

In the case of `CC(=O)NCCCC[C@H](NC(C)=O)C(=O)NCC(=O)S[C@H](C)C(=O)O`, the Ratio in test [1] stood at 5850; in test [5], 763. Moreover, in the test with Streptomyces [2], the Km is 2 mM. The values for the k cat (with Streptomyces [3]; in test [4]) were 11.9 s⁻¹ and 5.1 s⁻¹, respectively.

`CC(=O)NCCCC[C@H](NC(C)=O)C(=O)N[C@@H](C)C(=O)O[C@H](C)C(=O)O`: the Ratio in test [1] was found to be 1300; in test [5], 2340. The Km in the test on Streptomyces [2] was found to be 50.6 mM. For the same compound, the figures for the k cat (in the test with Streptomyces [3]; in test [4]) were 65.9 s⁻¹ and 63 s⁻¹, respectively.

With `C[C@H](NC(=O)Cc1ccccc1)C(=O)O[C@H](C)C(=O)O`, the Ratio in test [1] was 3630; in test [5], 1240. For the same compound, the Michaelis-Menten constant (Km) in the test with Streptomyces [2] amounted to 6.8 mM. For the same compound, the figures for the k cat (with Streptomyces [3]; in test [4]) were 24.6 s⁻¹ and 29 s⁻¹, respectively.

What is called Km is the concentration of substrate that gives half-maximal velocity.

Values taken from ChEMBL document CHEMBL1150988, “-lactam-recognizing enzymes exhibit different structural specificity in acyclic amide and ester substrates: a starting point in -lactamase evolution?” (Bioorg Med Chem Lett, 1994).
